Data reported in publication PMC7395176, “Retromer stabilization results in neuroprotection in a model of Amyotrophic Lateral Sclerosis” (Nature Communications, 2020).

Key:
VPS35 [1] = target: T1, VPS35 (Mus musculus, UniProt Q9EQH3+Q9QZ88); conditions: Neuro2a cells, 10 µM, 48 h, WB
Experimental: Protein extracts were collected, separated by SDS-PAGE and immunoblotted for VPS35 and the housekeeping gene β-Actin.
Neuro2a cells (ATCC® CCL-131™) were seeded in Dulbecco’s modified Eagle’s media (DMEM, Gibco) supplemented with FBS 10% (Gibco), L-glutamine (Gibco) 2 mM and penicillin/streptomycin 1% (Gibco). Depending on the experimental setting, we used 6-well, 12-well or 96-well dishes. Neuro2a were grow at 37 °C in a humidified 5% CO2 atmosphere. All experiments were carried out at least in triplicate. Compounds and transfections were done on cells showing 60–70% of confluence. Compounds were usually kept on cells for 48 h; Bortezomib (BTZ) was used at 10 nM for 6 h to inhibit proteasome.
Protein lysates from cells cultures were collected from plates receiving PBS 1× washing and subsequently the lysis buffer followed by sonication. Protein concentrations were measured by BCA protein assay kit (Thermofisher) according to the manufacturer’s recommendations. Ten µg of protein extract was loaded on 10% Mini-PROTEAN TGX Stain-Free precast gels for PAGE (Bio-Rad). Gel electrophoresis was performed at 100 V for 2 h. Gels were transferred on Immobilon®-P PVDF membrane according to the manufacturer’s instructions (Millipore). Blots were blocked in 5% BSA in Tris buffered saline plus 0.1% Tween-20 (TBS-T) for 1 h before receiving primary antibodies: goat α-VPS35 1:800 (ab10099, Abcam); rabbit α-VPS26 1:1000 (ab23892 Abcam), rabbit α-VPS26b 1:1000 (15915-1-AP, ProteinTech); rabbit α-VPS29 1:1000 (ab236796 Abcam); mouse α-βActin 1:25000 (Sigma–Aldrich); mouse α-Golgin97 1:1000 (Invitrogen); mouse α-Ubiquitin 1:500 (Merk); rabbit α-CD14 1:1000 (Bioss Inc); mouse α-Tubulin 1:5000 (Immunological Sciences MAB-80143) overnight at 4 °C on shaker. Following several washes with TBS-T, blots were incubated in appropriate HRP-labeled secondary antibodies (Bio-Rad) for 1 h at room temperature. Visualization of protein bands was obtained using ClarityMax-ECL (Bio-Rad) according to the manufacturer’s instructions and images were acquired on ChemiDoc (Bio-Rad). Quantifications were done using the Image Lab 6.0.1 software (Bio-Rad).

VPS35 [2] = target: T1, VPS35; test: Western blot for VPS35 in spinal cord extracts of treated C57BL6J mice; format: in vivo; parameters: from tissue; host or cells: mouse (lumbar) spinal cord, motor neurons; conditions: 10 mg/Kg intraperitoneally daily, 1 week
Experimental: Compounds 2a, 4a, and standard R55/1 (10 mg/Kg) were intraperitoneally injected in C57BL6J mice daily. After 1 week, mice were sacrificed, saline perfused to avoid CNS contamination by compounds in blood circulation, and SC protein extracts were assayed by WB. […] Therefore, phenyl-1,3-bis-guanylhydrazone 2a was selected as an early lead.

VPS29-VPS35 heterodimer = VPS29-VPS35 heterodimer (Homo sapiens, UniProt Q96QK1+Q9UBQ0); test: STD-NMR and WaterLogsy-NMR ligand-based binding experiments; conditions: STD- and WL-NMR competition experiments could not be performed
Experimental: We used a ligand-based NMR approach to localize the binding between compound 2a and the VPS29-VPS35 heterodimer. These techniques provide binding information without requiring any isotopic labeling of the proteins. Particularly, Saturation Transfer Difference NMR (STD-NMR)[32] and WaterLogsy-NMR (WL-NMR)[33] experiments were acquired in buffer solutions containing a large excess of compound 2a (500μM) with respect to VPS29-VPS35 (10 μM). Both STD-NMR and WL-NMR focus on the NMR signals of the ligand and utilize the magnetization transfer by the Nuclear Overhauser Effect (NOE) between protein and ligand. STD-NMR experiments are carried out by subtraction of a 1D ^1H spectrum where the protein protons are selectively irradiated (on-resonance spectrum) from a spectrum in which the protein is not saturated (off-resonance spectrum).
WL-NMR entails magnetization transfer to the ligand from either bulk water via a macromolecule, and/or the exchangeable protons and the water molecules present in the binding site. Positive peaks for proton resonances of the ligand in the WL-NMR spectrum are observed for binders in presence of the protein. […] As negative control, STD-NMR and WL-NMR experiments were performed for compound 2a in absence of the heterodimer. The absence of proton signals in the aromatic zone and the presence of negative signals in STD-NMR (Fig. 2k) and WL-NMR (Fig. 2l) spectra, respectively, confirms the binding between compound 2a and the VPS29-VPS35 heterodimer. Unfortunately, STD- and WL-NMR competition experiments between 2a and R55/1 could not be performed since the latter compound was not stable in our experimental conditions.
NMR spectra were acquired at 298K on a Bruker Avance NEO 700 MHz spectrometer equipped with a Z-gradient cryoprobe. The spectra were processed with the Bruker TOPSPIN 4.0.5 software packages. […] 1D ^1H spectra were recorded using a 1 s presaturation pulse with a B1 power of 200 Hz. […]

[3] = test system: Vps35, Vps26, and Vps29 mRNAs; parameters: method as in PMID 24747528; conditions: cited from earlier work
[4] = test system: VPS35-VPS29 interaction / retromer; parameters: method as in PMID 24747528; conditions: cited from earlier work
APP processing = test system: APP processing; parameters: method as in PMID 24747528; conditions: neurons carrying pathogenic APP mutations; cited from earlier work

VPS35 levels (VPS35 [1]) | stability in NMR experimental conditions (VPS29-VPS35 heterodimer) | SMILES | VPS35 levels in SC extracts (VPS35 [2]) | transcription levels of CRC genes [3] | VPS35-VPS29 interaction [4] | VPS35 and VPS26 levels in cultured cells [4] | increase of VPS35 levels in cells [4] | accumulation of amyloid-β peptides and APP processing (APP processing)
increased VPS35 levels | – | N=C(N)SCc1cccc(CSC(=N)N)c1 [compound 4a] | slightly, but not significantly, increased | – | – | – | – | –
increased VPS35 levels | – | NC(N)=N/N=C/c1ccc(/C=N/N=C(N)N)s1 [compound 3a] | – | – | – | – | – | –
increased | not stable | N=C(N)SCc1ccc(CSC(=N)N)s1 [R55/1] | – | did not influence | stabilizes the VPS35-VPS29 interaction | increases VPS35 and VPS26 levels | ~60% | reduced the accumulation of amyloid-β (Aβ) peptides as well as APP processing
